# According to ChEMBL document CHEMBL1201862, “PubChem BioAssay data set” (2004):
#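 Values below derive from 48-hour exposures of cells grown in 96-well plates, with endpoints linearly interpolated between the two concentrations bracketing the appropriate inhibition level. GI50: concentration for 50% inhibition of growth.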 Active and inactive are the calls of the source. No stated cut-off is given here; in the data, active = GI50 up to about 1.1 µM and inactive = higher.
# Experiments:
# Experiment in all cases: DTP human tumour cell line panel, 48 h
# 786-0 = tested on: 786-0
# A498 = tested on: A498
# A549 = tested on: A549
# ACHN = tested on: ACHN
# BT-549 = tested on: BT-549
# CCRF-CEM = tested on: CCRF-CEM
# COLO 205 = tested on: COLO 205
# DU-145 = tested on: DU-145
# EKVX = tested on: EKVX
# HCC 2998 = tested on: HCC 2998
# HCT-116 = tested on: HCT-116
# HCT-15 = tested on: HCT-15
# HL-60 = tested on: HL-60
# HOP-62 = tested on: HOP-62
# HT-29 = tested on: HT-29
# Hs-578T = tested on: Hs-578T
# IGROV-1 = tested on: IGROV-1
# K562 = tested on: K562
# KM12 = tested on: KM12
# LOX IMVI = tested on: LOX IMVI
# M14 = tested on: M14
# MCF7 = tested on: MCF7
# MDA-MB-231 = tested on: MDA-MB-231
# MDA-MB-435 = tested on: MDA-MB-435
# MDA-N = tested on: MDA-N
# MOLT-4 = tested on: MOLT-4
# Malme-3M = tested on: Malme-3M
# NCI-H226 = tested on: NCI-H226
# NCI-H23 = tested on: NCI-H23
# NCI-H460 = tested on: NCI-H460
# NCI/ADR-RES = tested on: NCI/ADR-RES
# OVCAR-3 = tested on: OVCAR-3
# OVCAR-4 = tested on: OVCAR-4
# OVCAR-5 = tested on: OVCAR-5
# OVCAR-8 = tested on: OVCAR-8
# RPMI-8226 = tested on: RPMI-8226
# RXF 393 = tested on: RXF 393
# SF-268 = tested on: SF-268
# SF-295 = tested on: SF-295
# SF-539 = tested on: SF-539
# SK-MEL-28 = tested on: SK-MEL-28
# SK-MEL-2 = tested on: SK-MEL-2
# SK-MEL-5 = tested on: SK-MEL-5
# SK-OV-3 = tested on: SK-OV-3
# SN12C = tested on: SN12C
# SNB-19 = tested on: SNB-19
# SNB-75 = tested on: SNB-75
# SR = tested on: SR
# SW-620 = tested on: SW-620
# T47D = tested on: T47D
# TK-10 = tested on: TK-10
# U-251 = tested on: U-251
# UACC-257 = tested on: UACC-257
# UACC-62 = tested on: UACC-62
# UO-31 = tested on: UO-31
# CAKI-1 = tested on: CAKI-1
# NCI-H522 = tested on: NCI-H522
# PC-3 = tested on: PC-3
# HOP-92 = tested on: HOP-92
smiles,measurement,setting,value
O=C1c2c(ccc3c2CCC3)CC1Cc1ccc2c(c1)CCC2 (stereo not given),GI50,786-0,32.3 µM (inactive)
same,GI50,A498,27.1 µM (inactive)
same,GI50,A549,28.9 µM (inactive)
same,GI50,ACHN,36.1 µM (inactive)
same,GI50,BT-549,51.6 µM (inactive)
same,GI50,CCRF-CEM,14.5 µM (inactive)
same,GI50,COLO 205,20.3 µM (inactive)
same,GI50,DU-145,27.3 µM (inactive)
same,GI50,EKVX,28.1 µM (inactive)
same,GI50,HCC 2998,34.3 µM (inactive)
same,GI50,HCT-116,6.55 µM (inactive)
same,GI50,HCT-15,11 µM
same,GI50,HL-60,4.69 µM (inactive)
same,GI50,HOP-62,28.1 µM (inactive)
same,GI50,HT-29,17.6 µM (inactive)
same,GI50,Hs-578T,10 µM (inactive)
same,GI50,IGROV-1,28.6 µM (inactive)
same,GI50,K562,14 µM (inactive)
same,GI50,KM12,25.2 µM (inactive)
same,GI50,LOX IMVI,25.4 µM (inactive)
same,GI50,M14,32.1 µM (inactive)
same,GI50,MCF7,22.6 µM (inactive)
same,GI50,MDA-MB-231,10.3 µM (inactive)
same,GI50,MDA-MB-435,24 µM (inactive)
same,GI50,MDA-N,30.8 µM (inactive)
same,GI50,MOLT-4,13.1 µM (inactive)
same,GI50,Malme-3M,28.8 µM (inactive)
same,GI50,NCI-H226,28.2 µM (inactive)
same,GI50,NCI-H23,21.6 µM (inactive)
same,GI50,NCI-H460,33.8 µM (inactive)
same,GI50,NCI/ADR-RES,28.2 µM (inactive)
same,GI50,OVCAR-3,24.4 µM (inactive)
same,GI50,OVCAR-4,27.5 µM (inactive)
same,GI50,OVCAR-5,90.2 µM (inactive)
same,GI50,OVCAR-8,36.3 µM (inactive)
same,GI50,RPMI-8226,9.91 µM (inactive)
same,GI50,RXF 393,25.7 µM (inactive)
same,GI50,SF-268,33.7 µM (inactive)
same,GI50,SF-295,26.9 µM (inactive)
same,GI50,SF-539,91 µM (inactive)
same,GI50,SK-MEL-28,51.8 µM (inactive)
same,GI50,SK-MEL-2,27.2 µM (inactive)
same,GI50,SK-MEL-5,12.5 µM (inactive)
same,GI50,SK-OV-3,53.3 µM (inactive)
same,GI50,SN12C,23.4 µM (inactive)
same,GI50,SNB-19,48.5 µM (inactive)
same,GI50,SNB-75,7.38 µM (inactive)
same,GI50,SR,5.27 µM (inactive)
same,GI50,SW-620,17.1 µM (inactive)
same,GI50,T47D,3.05 µM (inactive)
same,GI50,TK-10,29.2 µM (inactive)
same,GI50,U-251,24.2 µM (inactive)
same,GI50,UACC-257,18.5 µM (inactive)
same,GI50,UACC-62,8.24 µM (inactive)
same,GI50,UO-31,56.6 µM (inactive)
CC12CCC(=O)[C@@]1(C)CCCC2O (stereo not given in full),GI50,786-0,> 100 µM (inactive)
same,GI50,A549,> 100 µM (inactive)
same,GI50,ACHN,> 100 µM (inactive)
same,GI50,BT-549,> 100 µM (inactive)
same,GI50,CAKI-1,> 100 µM (inactive)
same,GI50,CCRF-CEM,> 100 µM (inactive)
same,GI50,COLO 205,> 100 µM (inactive)
same,GI50,DU-145,> 100 µM (inactive)
same,GI50,EKVX,> 100 µM (inactive)
same,GI50,HCC 2998,> 100 µM (inactive)
same,GI50,HCT-116,> 100 µM (inactive)
same,GI50,HCT-15,> 100 µM
same,GI50,HL-60,> 100 µM (inactive)
same,GI50,HOP-62,> 100 µM (inactive)
same,GI50,HT-29,> 100 µM (inactive)
same,GI50,Hs-578T,> 100 µM (inactive)
same,GI50,IGROV-1,> 100 µM (inactive)
same,GI50,K562,> 100 µM (inactive)
same,GI50,KM12,> 100 µM (inactive)
same,GI50,LOX IMVI,> 100 µM (inactive)
same,GI50,M14,> 100 µM (inactive)
same,GI50,MCF7,> 100 µM (inactive)
same,GI50,MDA-MB-231,> 100 µM (inactive)
same,GI50,MDA-N,> 100 µM (inactive)
same,GI50,MOLT-4,> 100 µM (inactive)
same,GI50,Malme-3M,> 100 µM (inactive)
same,GI50,NCI-H226,> 100 µM (inactive)
same,GI50,NCI-H23,> 100 µM (inactive)
same,GI50,NCI-H460,> 100 µM (inactive)
same,GI50,NCI-H522,> 100 µM (inactive)
same,GI50,NCI/ADR-RES,> 100 µM (inactive)
same,GI50,OVCAR-4,> 100 µM (inactive)
same,GI50,OVCAR-5,> 100 µM (inactive)
same,GI50,OVCAR-8,> 100 µM (inactive)
same,GI50,PC-3,> 100 µM (inactive)
same,GI50,RPMI-8226,> 100 µM (inactive)
same,GI50,SF-268,> 100 µM (inactive)
same,GI50,SF-295,> 100 µM (inactive)
same,GI50,SF-539,> 100 µM (inactive)
same,GI50,SK-MEL-28,> 100 µM (inactive)
same,GI50,SK-MEL-2,> 100 µM (inactive)
same,GI50,SK-MEL-5,> 100 µM (inactive)
same,GI50,SK-OV-3,> 100 µM (inactive)
same,GI50,SN12C,> 100 µM (inactive)
same,GI50,SNB-19,> 100 µM (inactive)
same,GI50,SNB-75,> 100 µM (inactive)
same,GI50,SR,> 100 µM (inactive)
same,GI50,SW-620,> 100 µM (inactive)
same,GI50,T47D,> 100 µM (inactive)
same,GI50,TK-10,> 100 µM (inactive)
same,GI50,U-251,> 100 µM (inactive)
same,GI50,UACC-257,> 100 µM (inactive)
same,GI50,UACC-62,> 100 µM (inactive)
same,GI50,UO-31,> 100 µM (inactive)
CCCCCCCCCCCCOP(=O)(O)OP(=O)(O)OCC1OC(n2cc(C)c(=O)[nH]c2=O)CC1O (stereo not given),GI50,786-0,> 100 µM (inactive)
same,GI50,A498,> 100 µM (inactive)
same,GI50,A549,> 100 µM (inactive)
same,GI50,ACHN,> 100 µM (inactive)
same,GI50,BT-549,> 100 µM (inactive)
same,GI50,CAKI-1,> 100 µM (inactive)
same,GI50,CCRF-CEM,> 100 µM (inactive)
same,GI50,COLO 205,> 100 µM (inactive)
same,GI50,EKVX,> 100 µM (inactive)
same,GI50,HCC 2998,> 100 µM (inactive)
same,GI50,HCT-116,> 100 µM (inactive)
same,GI50,HCT-15,> 100 µM
same,GI50,HL-60,> 100 µM (inactive)
same,GI50,HOP-62,> 100 µM (inactive)
same,GI50,HOP-92,> 100 µM (inactive)
same,GI50,HT-29,> 100 µM (inactive)
same,GI50,Hs-578T,> 100 µM (inactive)
same,GI50,IGROV-1,> 100 µM (inactive)
same,GI50,K562,> 100 µM (inactive)
same,GI50,KM12,> 100 µM (inactive)
same,GI50,LOX IMVI,> 100 µM (inactive)
same,GI50,M14,> 100 µM (inactive)
same,GI50,MCF7,> 100 µM (inactive)
same,GI50,MDA-MB-231,> 100 µM (inactive)
same,GI50,MDA-MB-435,> 100 µM (inactive)
same,GI50,MDA-N,> 100 µM (inactive)
same,GI50,MOLT-4,> 100 µM (inactive)
same,GI50,Malme-3M,> 100 µM (inactive)
same,GI50,NCI-H226,> 100 µM (inactive)
same,GI50,NCI-H23,> 100 µM (inactive)
same,GI50,NCI-H460,> 100 µM (inactive)
same,GI50,NCI-H522,> 100 µM (inactive)
same,GI50,NCI/ADR-RES,> 100 µM (inactive)
same,GI50,OVCAR-3,> 100 µM (inactive)
same,GI50,OVCAR-4,> 100 µM (inactive)
same,GI50,OVCAR-5,> 100 µM (inactive)
same,GI50,OVCAR-8,> 100 µM (inactive)
same,GI50,PC-3,> 100 µM (inactive)
same,GI50,RPMI-8226,> 100 µM (inactive)
same,GI50,RXF 393,> 100 µM (inactive)
same,GI50,SF-268,> 100 µM (inactive)
same,GI50,SF-295,> 100 µM (inactive)
same,GI50,SF-539,> 100 µM (inactive)
same,GI50,SK-MEL-28,> 100 µM (inactive)
same,GI50,SK-MEL-2,> 100 µM (inactive)
same,GI50,SK-MEL-5,> 100 µM (inactive)
same,GI50,SK-OV-3,> 100 µM (inactive)
same,GI50,SN12C,> 100 µM (inactive)
same,GI50,SNB-19,> 100 µM (inactive)
same,GI50,SNB-75,> 100 µM (inactive)
same,GI50,SW-620,> 100 µM (inactive)
same,GI50,T47D,> 100 µM (inactive)
same,GI50,TK-10,> 100 µM (inactive)
same,GI50,U-251,> 100 µM (inactive)
same,GI50,UACC-257,> 100 µM (inactive)
same,GI50,UO-31,> 100 µM (inactive)
